This passage reports EC50 results from US20150336889A1, “INDOLE DERIVATIVES, PHARMACEUTICAL COMPOSITIONS CONTAINING SUCH INDOLES AND THEIR USE AS DNA METHYLATION MODULATORS” (IKERCHEM, S.L., priority 2012, published 2015).

Format in all cases: cell-based
One test has as its system BT474. Briefly: Cancer cell growth inhibition, BT474. Particulars: Homo sapiens, BT-474; Breast, BT474, cell viability, 72 h. As for the experimental part:
(§1) Cell culture-based assays were used to evaluate the ability of compounds of the invention to inhibit cancer cell growth inhibition.
(§2) Cells were obtained from the American Type Culture Collection (ATCC) and European Collection of Cell Cultures (ECACC).
(§3) Cells were thawed in their appropriate media plus supplements (see table below). Cells were passaged at confluence by washing once in HBSS cation-free followed by a 3 minutes incubation with trypsin ([0.5 μg/ml]/EDTA [0.2 μg/ml]) (Gibco-BRL, 15400054) solution in HBSS at 37° C. (except non-adherent cell lines), and transferred to their appropriate media plus supplements. Prior to seeding at defined cell concentration, cells were recovered in medium, centrifuged and taken up in medium, and counted. […]
(§4) Dose-response curves were generated by serial dilutions (1:1) of the compounds. […] Plates were incubated 72 h, and living cell number was determined by AlamarBlue® and Hexosaminidase test. […] AlamarBlue® assay: plates were incubated 72 h and living cell number was determined by AlamarBlue (Biosource DAL1100). After 4 h incubation at 37° C., relative fluorescent intensity, which correlates with the number of living cells, was read in a Cytofluor plate reader (Millipore) at 535/590 nm (Excitation/emission). The hexosaminidase activity was measured according to the following protocol: the media was removed and cells were washed once with PBS. […]

The next test deals with MDA-MB-231. Briefly: Cancer cell growth inhibition, MDA-MB-231. Particulars: Homo sapiens; Breast, MDA-MB-231, cell viability, 72 h. The method, then:
as §1, §2, §3, §4

The test system of another test is MDA-MB-468. Briefly: Cancer cell growth inhibition, MDA-MB-468. Particulars: Homo sapiens; Breast, MDA-MB-468, cell viability, 72 h. The method, then:
as §1, §2
(§5) Cells were thawed in their appropriate media plus supplements (see table below). Cells were passaged at confluence by washing once in HBSS cation-free followed by a 3 minutes incubation with trypsin ([0.5 μg/ml]/EDTA [0.2 μg/ml]) (Gibco-BRL, 15400054) solution in HBSS at 37° C. (except non-adherent cell lines), and transferred to their appropriate media plus supplements. Prior to seeding at defined cell concentration, cells were recovered in medium, centrifuged and taken up in medium, and counted.
(§6) Cells were plated at 3000/5000/10000 cells/well in 100 μl media in tissue culture 96 well plates (Cultek). After 24 h, media was supplemented by 100 μl/well of diluted IPDNs at 100 μM.
(§7) The Hexosaminidase assay was used for the adherent cell lines, whereas the AlamarBlue® assay was used for the non-adherent cell lines.
(§8) Dose-response curves were generated by serial dilutions (1:1) of the compounds. […] Reagent blanks, containing media plus colorimetric reagent without cells were run on each plate. Blank values were subtracted from test values and were routinely 5-10% of uninhibited control values. Plates were incubated 72 h, and living cell number was determined by AlamarBlue® and Hexosaminidase test. The advantages of using those assays are that both can be done in the same microwell plate. AlamarBlue® assay: plates were incubated 72 h and living cell number was determined by AlamarBlue (Biosource DAL1100). After 4 h incubation at 37° C., relative fluorescent intensity, which correlates with the number of living cells, was read in a Cytofluor plate reader (Millipore) at 535/590 nm (Excitation/emission). The hexosaminidase activity was measured according to the following protocol: the media was removed and cells were washed once with PBS. […]

Another test relates to SK-BR-3. The test is described as follows: Cancer cell growth inhibition, SK-BR-3. Particulars: Homo sapiens; Breast, SK-BR-3, cell viability, 72 h. As for the experimental part: as §1, §2, §5, §6, §7, §8
The next test relates to LnCaP. The test is described as follows: Cancer cell growth inhibition, LnCaP. Particulars: Homo sapiens, Prostate, cell viability, 72 h. The method, then:
as §1, §2, §5, §6, §7
(§9) Dose-response curves were generated by serial dilutions (1:1) of the compounds. […] Reagent blanks, containing media plus colorimetric reagent without cells were run on each plate. Blank values were subtracted from test values and were routinely 5-10% of uninhibited control values. Plates were incubated 72 h, and living cell number was determined by AlamarBlue® and Hexosaminidase test. The advantages of using those assays are that both can be done in the same microwell plate. AlamarBlue® assay: plates were incubated 72 h and living cell number was determined by AlamarBlue (Biosource DAL1100). After 4 h incubation at 37° C., relative fluorescent intensity, which correlates with the number of living cells, was read in a Cytofluor plate reader (Millipore) at 535/590 nm (Excitation/emission). The hexosaminidase activity was measured according to the following protocol: the media was removed and cells were washed once with PBS.
(§10) Data analysis was done by calculating the percentage of cell viability normalized in front of negative control values, which were considered as a 100%. The curve was adjusted using a sigmoidal dose-response (variable slope) equation and EC50 values were obtained from the equation
(§11) where, X is the logarithm of concentration. Y is the response. Bottom is the Y value at the bottom plateau Top is the Y value at the top plateau LogEC50 is the X value when the response is halfway between Bottom and Top. With different kinds of variables, this variable is sometimes called ED50 (effective dose, 50%), or IC50 (inhibitory concentration, 50%, used when the curve goes downhill).

A further test concerns HCT-116. Briefly: Cancer cell growth inhibition, HCT-116. As to conditions: Homo sapiens; Colorectal, HCT-116, cell viability, 72 h. As for the experimental part: as §1, §2, §5, §6, §7, §9, §10, §11
The test system of another test is LoVo. The test is described as follows: Cancer cell growth inhibition, LoVo. Particulars: Homo sapiens, Colorectal, cell viability, 72 h. As for the experimental part:
as §1, §2, §5, §6, §7, §8

A further test deals with SW-480. Briefly: Cancer cell growth inhibition, SW-480. Particulars: Homo sapiens, SW480; Colorectal, SW-480, cell viability, 72 h. The method, then:
as §1, §2, §3, §4

The test system of a further test is NCI-H1975. Briefly: Cancer cell growth inhibition, NCI-H1975. Particulars: Homo sapiens; Lung, NCI-H1975, cell viability, 72 h. The method, then: as §1, §2, §5, §6, §7, §9, §10, §11
The next test concerns SK-HEP-1. Briefly: Cancer cell growth inhibition, SK-HEP-1. Particulars: Homo sapiens, SK-HEP1; Liver, SK-HEP-1, cell viability, 72 h. As for the experimental part: as §1, §2, §5, §6, §7, §8
The test system of another test is MiaPaCa-2. Briefly: Cancer cell growth inhibition, MiaPaCa-2. As to conditions: Homo sapiens, MIA PaCa-2; Pancreatic, MiaPaCa-2, cell viability, 72 h. As for the experimental part:
as §1, §2, §5, §6, §7, §9, §10, §11

The next test concerns Panc-1. The test is described as follows: Cancer cell growth inhibition, Panc-1. As to conditions: Homo sapiens; Pancreatic, Panc-1, cell viability, 72 h. As for the experimental part: as §1, §2, §5, §6, §7, §9, §10, §11
Another test relates to BxPC3. Briefly: Cancer cell growth inhibition, BxPC3. As to conditions: Homo sapiens, BXPC-3; Pancreatic, BxPC3, cell viability, 72 h. As for the experimental part: as §1, §2, §5, §6, §7, §8
The test system of a further test is SK-MEL-28. The test is described as follows: Cancer cell growth inhibition, SK-MEL-28. As to conditions: Homo sapiens; Melanoma, SK-MEL-28, cell viability, 72 h. As for the experimental part: as §1, §2, §5, §6, §7, §8
For the next test, the system named is RCC-7860. Briefly: Cancer cell growth inhibition, RCC-7860. Particulars: Renal, RCC-7860, cell viability, 72 h. The method, then: as §1, §2, §3, §4
The test system of another test is Daoy. The test is described as follows: Cancer cell growth inhibition, Daoy. As to conditions: Homo sapiens, Brain, cell viability, 72 h. The method, then:
as §1, §2, §5, §6, §7, §9, §10, §11

The test system of a further test is U-373MG. The test is described as follows: Cancer cell growth inhibition, U-373MG. Particulars: Homo sapiens, U373 MG, Brain, cell viability, 72 h. As for the experimental part:
as §1, §2, §5, §6, §7, §8

In a further test the test system is SK-OV-3. Briefly: Cancer cell growth inhibition, SK-OV-3. Particulars: Homo sapiens; Ovarian, SK-OV-3, cell viability, 72 h. As for the experimental part: as §1, §2, §5, §6, §7, §8
The subject of another test is CCFR-CEM. Briefly: Cancer cell growth inhibition, CCFR-CEM. As to conditions: Hematologic, cell viability, 72 h. The method, then:
as §1, §2, §5, §6, §7, §9, §10, §11

A further test has as its system RPMI-8226. The test is described as follows: Cancer cell growth inhibition, RPMI-8226. Particulars: Homo sapiens; Multiple Myelome, RPMI-8226, cell viability, 72 h. As for the experimental part:
as §1, §2, §5, §6, §7, §9, §10, §11

In the next test the test system is LS174T. Briefly: Cancer cell growth inhibition, LS174T. As to conditions: Homo sapiens, Colorectal, cell viability, 72 h. As for the experimental part:
as §1, §2, §3, §4

Regarding `COc1cc(OC)c2c(-c3ccc(O)cc3)cn(CC(=O)c3ccc(O)cc3)c2c1` [Example 6, 1-(4-hydroxyphenyl)-2-[3-(4-hydroxyphenyl)-4,6-dimethoxy-1H-indol-1-yl]ethanone], the concentration for a half-maximal effect (EC50) (in general, the concentration that produces a half-maximal response) in the test with BT474 stood at 50 µM; in the test on MDA-MB-231, 13 µM; with MDA-MB-468 it was 6.1 µM; in the test with SK-BR-3 it was 3.8 µM; with LnCaP, 4.8 µM; in the test with HCT-116, 5.7 µM. In addition, the EC50 in the test with LoVo came out at 12 µM; in the test on SW-480, 94 µM; with NCI-H1975 it was 9.2 µM; with SK-HEP-1, 31 µM; with MiaPaCa-2 it was 5.5 µM; with Panc-1, 15 µM. Also, the half-maximal effective concentration (EC50) with BxPC3 is 15 µM; with SK-MEL-28 it was 4.8 µM; with RCC-7860 it was 12 µM; with Daoy, 4.2 µM; with U-373MG it was 8.1 µM; with SK-OV-3, 4.1 µM. The EC50 in the test with CCFR-CEM was found to be 6.3 µM; in the test with RPMI-8226, 6.4 µM.
With `O=C(Cn1cc(-c2ccc(O)cc2)c2c(F)cc(F)cc21)c1ccc(O)cc1` [Example 16, 2-[4,6-difluoro-3-(4-hydroxyphenyl)-1H-indol-1-yl]-1-(4-hydroxyphenyl) ethanone], the EC50 in the test with MDA-MB-468 was 74 µM; in the test with SK-BR-3, 59 µM; with LnCaP, 43 µM; in the test with HCT-116, 37 µM; in the test on LoVo, 50 µM; in the test with LS174T it was 88 µM. The EC50 in the test with SK-HEP-1 came to 35 µM; with MiaPaCa-2 it was 61 µM; in the test with BxPC3, 34 µM; in the test with SK-MEL-28, 59 µM; in the test on Daoy, 50 µM; with SK-OV-3, 44 µM. Besides, the EC50 with CCFR-CEM is 57 µM; with RPMI-8226, 65 µM.
